Laboratory results as given in patent US9283037B2, “Laser microporator” (PANTEC BIOSOLUTIONS AG, priority 2006, dated 2016).

Assay: Serum concentration of drug over time after transdermal patch application onto laser-microporated skin (FIG. 9a-9b)
Assay type: in vivo, human
Settings: over about two hours
Description: The drug is entering the permeation surface by passive diffusion. The amount of drug entering the permeation surface is mainly determined by the permeation surface A(t) over time. Therefore, the serum concentration as a function of time can be determined by an appropriate poration of the skin 1 with an initial microporation at time TP.
FIG. 9a to 9b show the administration of the same amount of drug, for example 100 mg acetylsalicylic acid, the drug being arranged on the skin 1 as disclosed in FIG. 5e. Depending on the permeation surface A(t) as a function of time, the level of the serum concentration as well as the time period within which the drug is released, can be predescribed. In FIG. 9a the permeation surface A(t) is chosen such that the maximal serum concentration is about 25 g/l over a short period of time of about two hours. […] A further advantage is that the same amount of drug, e.g. the same patch, applied onto the skin 1, causes a different serum concentration, depending only on the function of the permeation surface A over time. This allows administering the same drug in different ways. This also allows administering the same drug in an individual way, in that the permeation surface is created depending on individual parameters of the person the drug is applied to.

maximal serum concentration (FIG. 9a, 100 mg acetylsalicylic acid in patch on microporated skin, transdermal application, chosen permeation surface A(t)): about 25 g/l | maximal serum concentration (FIG. 9b, fast application (turbo), same amount of drug (100 mg) in patch on microporated skin): about 30 g/l
Structure (SMILES): CC(=O)Oc1ccccc1C(=O)O [acetylsalicylic acid]
